In patent US20060211740A1, “Novel compounds” (priority 2003, published 2006):
pIC50: −log10 of the molar value. “And” between values parts separate entries of the source, which are not always exact repeats. Identical values can stand only once. Counter-ions that a name gives are not always drawn. Blank lines part the entries; values can stand above or below the molecule they belong to.

How the values were obtained:
Cathepsin D = Cathepsin D (Homo sapiens, UniProt P07339); assay: Cathepsin D Inhibitory Assay; type: biochemical; settings: FAM-[SEVNLDAEFK]-TAMRA substrate, pH 4.5, 1 h at room temperature, fluorescence; read-out: inhibition (CatD), Assay (II)
Experimental: (II) Cathepsin D Inhibitory Assay
(§1) For each compound being assayed, in a 384 well plate, is added:—
(§2) a) 1 μl of a DMSO solution of the test compound (IC50 curve uses ten 1 in 2 serial dilutions from 500 μM).
(§3) This is prepared by diluting 2 ml of a 2 mM DMSO solution of the substrate into 400 ml of buffer (100 mM Sodium acetate pH=4.5, 1 l Milli-Q water, 0.06% Triton X-100 (0.5 ml/l), pH adjusted to 4.5 using glacial acetic add).
c) 10 μl enzyme solution. This is prepared by diluting 1.6 ml of a 200 unit/ml (in 10 mM HCl) enzyme solution into 398.4 ml of buffer (prepared as above).
(§4) Blank wells (enzyme solution replaced by buffer) are included as controls on each plate. Wells are incubated for 1 h at room temperature and fluorescence read using a Tecan Ultra Fluorimeter/Spectrophotometer (485 nm excitation, 535 nm emission).

Asp-2 = Asp-2 (Homo sapiens, UniProt P56817); assay: Asp-2 Inhibitory Assay; type: biochemical; settings: FAM-[SEVNLDAEFK]-TAMRA substrate, pH 4.5, 1 h at room temperature, fluorescence; read-out: inhibition (Asp2), Assay (I)
Experimental: (I) Asp-2 Inhibitory Assay
as §1, §2
as §3, with “acid). Aminomethyl fluorescein (FAM) and tetramethyl rhodamine (TAMRA) are fluorescent molecules which co-operate to emit fluorescence at 535 nm upon cleavage of the […] peptide.” for “add).”
c) 10 μl enzyme solution. This is prepared by diluting 16 ml of a 500 nM enzyme solution into 384 ml of buffer (prepared as above).
as §4

Asp-2, sequence (P56817 46-501): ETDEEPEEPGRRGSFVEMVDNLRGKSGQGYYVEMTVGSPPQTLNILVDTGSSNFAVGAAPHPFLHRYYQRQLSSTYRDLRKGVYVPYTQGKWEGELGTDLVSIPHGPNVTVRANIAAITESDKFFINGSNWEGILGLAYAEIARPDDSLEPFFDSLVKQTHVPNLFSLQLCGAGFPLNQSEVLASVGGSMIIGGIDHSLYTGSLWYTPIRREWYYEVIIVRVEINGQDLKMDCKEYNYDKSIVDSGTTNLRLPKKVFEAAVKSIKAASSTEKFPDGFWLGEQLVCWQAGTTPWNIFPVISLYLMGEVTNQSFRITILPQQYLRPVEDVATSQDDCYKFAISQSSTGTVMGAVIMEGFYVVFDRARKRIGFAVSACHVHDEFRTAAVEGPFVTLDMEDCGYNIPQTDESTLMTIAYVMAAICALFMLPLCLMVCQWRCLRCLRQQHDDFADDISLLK
Cathepsin D, sequence (P07339 65-412, species assumed): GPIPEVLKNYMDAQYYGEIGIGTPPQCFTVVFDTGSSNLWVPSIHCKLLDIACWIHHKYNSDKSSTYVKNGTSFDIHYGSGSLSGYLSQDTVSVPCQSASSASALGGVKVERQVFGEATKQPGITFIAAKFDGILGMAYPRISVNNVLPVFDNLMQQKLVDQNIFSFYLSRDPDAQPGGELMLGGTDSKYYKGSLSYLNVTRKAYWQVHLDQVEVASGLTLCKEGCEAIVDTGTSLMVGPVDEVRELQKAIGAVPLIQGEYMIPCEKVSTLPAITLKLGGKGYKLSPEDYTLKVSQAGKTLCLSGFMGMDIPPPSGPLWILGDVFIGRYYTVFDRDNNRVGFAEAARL

pIC50 (Cathepsin D): 5.60 to 6.70 and 6.00 to 6.40 | pIC50 (Asp-2): 7.00 to 9.00 and 8.00 to 9.00
Structure (SMILES): C[C@H](NC[C@@H](O)[C@H](Cc1ccccc1)NC(=O)c1cc(N2CCCC2=O)cc(N(c2ccccc2)S(C)(=O)=O)c1)C(=O)NC1CCCCC1 [Example E41]

pIC50 (Cathepsin D): 5.60 to 6.70 and 6.00 to 6.40 | pIC50 (Asp-2): 7.00 to 9.00 and 8.00 to 9.00
Structure (SMILES): CS(=O)(=O)N(c1ccccc1)c1cc(C(=O)N[C@@H](Cc2ccccc2)[C@H](O)CNCc2cccc(OC(F)(F)F)c2)cc(N2CCCC2=O)c1 [Example E55, formate salt]

pIC50 (Cathepsin D): 5.60 to 6.70 and 6.00 to 6.40 | pIC50 (Asp-2): 7.00 to 9.00 and 8.00 to 9.00
Structure (SMILES): CS(=O)(=O)N(c1cccc(C#N)c1)c1cc(C(=O)N[C@@H](Cc2ccccc2)[C@H](O)CNCc2cccc(C(F)(F)F)c2)cc(N2CCCC2=O)c1 [Example E77, formate salt]

Further lines, the molecule ahead of its results:

Structure (SMILES): CS(=O)(=O)N(c1cccc(C#N)c1)c1cccc(C(=O)N[C@@H](Cc2ccccc2)[C@H](O)CNCc2cccc(C(F)(F)F)c2)c1 [Example E17, N-[(1S,2R)-1-Benzyl-2-hydroxy-3-(3-trifluoromethyl-benzylamino)-propyl]-[(3-cyano-phenyl)-methanesulfonyl-amino]-benzamide]
pIC50 (Cathepsin D): 5.60 to 6.70 | pIC50 (Asp-2): 7.00 to 9.00

Structure (SMILES): C#Cc1cc(C(=O)N[C@@H](Cc2ccccc2)[C@H](O)CNCc2cccc(C(F)(F)F)c2)cc(N(c2ccccc2)S(C)(=O)=O)c1 [Example E46, N-[(1S,2R)-1-Benzyl-2-hydroxy-3-(3-trifluoromethyl-benzylamino)-propyl]-ethynyl-(methanesulfonyl-phenyl-amino)-benzamide]
pIC50 (Cathepsin D): 5.60 to 6.70 | pIC50 (Asp-2): 7.00 to 9.00

Structure (SMILES): CS(=O)(=O)N(c1ccccc1)c1cccc(C(=O)N[C@@H](Cc2ccccc2)[C@H](O)CNCc2cccc(C(F)(F)F)c2)c1F [Example E56, formate salt]
pIC50 (Cathepsin D): 5.60 to 6.70 | pIC50 (Asp-2): 7.00 to 9.00

Structure (SMILES): CCSc1cc(C(=O)N[C@@H](Cc2ccccc2)[C@H](O)CNCc2cccc(C(F)(F)F)c2)cc(N(c2ccccc2)S(C)(=O)=O)c1 [Example E60]
pIC50 (Cathepsin D): 5.60 to 6.70 and 6.00 to 6.40 | pIC50 (Asp-2): 7.00 to 9.00 and 8.00 to 9.00

Structure (SMILES): C=C(C)c1cc(C(=O)N[C@@H](Cc2ccccc2)[C@H](O)CNCc2cccc(C(F)(F)F)c2)cc(N(c2ccccc2)S(C)(=O)=O)c1 [Example E83, N-[(1S,2R)-Benzyl-hydroxy-3-(3-trifluoromethyl-benzylamino)-propyl]-3-isopropenyl-5-(methanesulfonyl-phenyl-amino)-benzamide]
pIC50 (Cathepsin D): 5.60 to 6.70 | pIC50 (Asp-2): 7.00 to 9.00
